Assay results reported in patent US6369261B1, “Compounds having activity as inhibitors of cytochrome P450RAI” (Allergan Sales, Inc., priority 2000, dated 2002).
Blank lines part the entries; values can stand above or below the molecule they belong to.

Experiments:
[1] = tested on: SKH1-hrBR or hairless mouse; test: topical skin irritation test in hairless mice; type: in vivo; details: topical in acetone, once daily days 1 through 5, mean ±SD, range 0-21
Source text: Mice were housed individually throughout the dosing period.
Doses are disclosed as nmol/25 g.
The grading scale used is as follows:
Values can range from 0-9.
Values can range from 0-8.

RARβ = molecular target: T1, RARβ (Homo sapiens, UniProt P10826); test: ligand binding assay; details: last line of the stacked cell, read-out: RAR Kd β
T1 sequence (P10826 1-455): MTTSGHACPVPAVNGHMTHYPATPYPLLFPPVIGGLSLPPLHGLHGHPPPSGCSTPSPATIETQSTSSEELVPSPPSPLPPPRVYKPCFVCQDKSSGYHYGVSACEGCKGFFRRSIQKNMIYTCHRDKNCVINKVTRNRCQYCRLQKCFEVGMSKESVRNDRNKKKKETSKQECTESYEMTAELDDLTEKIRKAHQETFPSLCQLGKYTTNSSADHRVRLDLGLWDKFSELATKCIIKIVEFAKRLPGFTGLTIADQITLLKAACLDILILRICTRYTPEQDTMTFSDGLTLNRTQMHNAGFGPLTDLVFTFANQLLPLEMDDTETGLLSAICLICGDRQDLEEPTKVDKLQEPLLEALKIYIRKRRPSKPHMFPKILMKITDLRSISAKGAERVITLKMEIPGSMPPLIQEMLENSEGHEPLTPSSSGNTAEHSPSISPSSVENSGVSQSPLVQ
Source text: (§1) Assays described below measure the ability of a compound to bind to, and/or activate various retinoid receptor subtypes. When in these assays a compound binds to a given receptor subtype and activates the transcription of a reporter gene through that subtype, then the compound is considered an agonist of that receptor subtype. […] In the below described assays the ability of the compounds to bind to RARα, RARβ, RARγ, RXRα, RXRβ and RXRγ receptors, and the ability or inability of the compounds to activate transcription of a reporter gene through these receptor subtypes can be tested.
(§2) The results obtained in this assay are expressed in EC50 numbers, as they are also in the chimeric receptor transactivation assay. The results of ligand binding assay are expressed in Kd numbers.

RARγ = molecular target: T2, RARγ (Homo sapiens, UniProt P13631); test: ligand binding assay; details: last line of the stacked cell, read-out: RAR Kd γ
T2 sequence (P13631 1-454): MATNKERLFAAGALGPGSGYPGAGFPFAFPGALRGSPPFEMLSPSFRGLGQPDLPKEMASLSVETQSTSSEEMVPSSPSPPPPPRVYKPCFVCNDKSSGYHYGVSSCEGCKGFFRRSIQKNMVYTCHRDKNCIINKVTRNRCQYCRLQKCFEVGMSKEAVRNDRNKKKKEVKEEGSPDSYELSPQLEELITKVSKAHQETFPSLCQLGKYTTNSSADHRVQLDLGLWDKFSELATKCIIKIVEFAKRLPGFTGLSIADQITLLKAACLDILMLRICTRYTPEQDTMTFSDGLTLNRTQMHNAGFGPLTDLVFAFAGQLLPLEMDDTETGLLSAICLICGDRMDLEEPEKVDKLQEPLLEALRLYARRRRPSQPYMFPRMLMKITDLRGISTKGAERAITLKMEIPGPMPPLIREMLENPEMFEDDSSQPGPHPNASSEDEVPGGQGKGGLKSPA
Source text: as §1, §2

SMILES: CC1(C)CC2(CC2)Oc2c(C3CC3)cc(C#Cc3ccc(CC(=O)O)cc3)cc21 [Compound 48, Benzeneacetic acid, 4-[(8-cyclopropyl-3,4-dihydro-4,4-dimethylspiro[2H-1-benzopyran-2,1′-cyclopropane]-6-yl)ethynyl]-]
Cutaneous Toxicity Score (Blackjack Score) ([1]; 100 nmole (nmol/25 g)): 1 ± 1
Cutaneous Toxicity Score (Blackjack Score) ([1]; 300 nmole (nmol/25 g)): 3 ± 1
Cutaneous Toxicity Score (Blackjack Score) ([1]; 1000 nmole (nmol/25 g)): 7 ± 2

SMILES: CC1(C)CN(C2CC2)Cc2ccc(C#Cc3ccc(CC(=O)O)c(F)c3)cc21 [Compound 22, [4-(2-Cyclopropyl-4,4-dimethyl-1,2,3,4-tetrahydro-isoquinolin-6-yl-ethynyl)-2-fluoro-phenyl]-acetic acid]
Cutaneous Toxicity Score (Blackjack Score) ([1]; 100 nmole (nmol/25 g)): 0 ± 0
Cutaneous Toxicity Score (Blackjack Score) ([1]; 300 nmole (nmol/25 g)): 0 ± 0
Cutaneous Toxicity Score (Blackjack Score) ([1]; 1000 nmole (nmol/25 g)): 1 ± 1

SMILES: CC1(C)CC2(CC2)Oc2c(C3CC3)cc(C#Cc3ccc(CC(=O)O)c(F)c3)cc21 [Compound 50]
Cutaneous Toxicity Score (Blackjack Score) ([1]; 100 nmole (nmol/25 g)): 1 ± 0
Cutaneous Toxicity Score (Blackjack Score) ([1]; 300 nmole (nmol/25 g)): 3 ± 2
Cutaneous Toxicity Score (Blackjack Score) ([1]; 1000 nmole (nmol/25 g)): 8 ± 2

Kd (RARβ): > 100 µM
SMILES: Cc1cc(C#Cc2ccc(CC(=O)O)cc2)ccc1Cn1ccnc1 [Compound 121, [4-(4-Imidazol-1-yl-methyl-3-methyl-phenylethynyl)-phenyl]-acetic acid]

SMILES: CC1(C)CC2(CC2)Oc2c(C3CC3)cc(C(=O)Oc3ccc(CC(=O)O)cc3)cc21 [Compound 58, Spiro[2H-1-benzopyran-2,1′-cyclopropane]-6-carboxylic acid, 8-cyclopropyl-3,4-dihydro-4,4-dimethyl-, 4-(carboxymethyl)phenyl ester]
Cutaneous Toxicity Score (Blackjack Score) ([1]; 100 nmole (nmol/25 g)): 0 ± 0
Cutaneous Toxicity Score (Blackjack Score) ([1]; 300 nmole (nmol/25 g)): 0 ± 0
Cutaneous Toxicity Score (Blackjack Score) ([1]; 1000 nmole (nmol/25 g)): 0 ± 0

SMILES: CC1(C)CCC(=O)c2ccc(C#Cc3ccc(CC(=O)O)cc3)cc21 [Compound 5, 4-[(8,8-Dimethyl-5-oxo-5,6,7,8-tetrahydro-naphthalene-2-yl-ethynyl)-phenyl]-acetic acid]
Cutaneous Toxicity Score (Blackjack Score) ([1]; 100 nmole (nmol/25 g)): 0
Cutaneous Toxicity Score (Blackjack Score) ([1]; 1000 nmole (nmol/25 g)): 6 ± 3

Kd (RARβ): > 10 µM
SMILES: O=C(O)c1ccc(C#Cc2ccc(C3(N(Cc4ccccc4)Cc4ccccc4)CC3)cc2)cc1 [Compound 114, 4-[4-(1-Dibenzylamino-cyclopropyl)-phenylethynyl]-benzoic acid]

SMILES: CC1(C)CCC(=O)c2ccc(C#Cc3ccc(CC(=O)O)c(F)c3)cc21 [Compound 15, [2-Fluoro-4-(8,8-dimethyl-5-oxo-5,6,7,8-tetrahydro-naphthalene-2-yl-ethynyl)phenyl]-acetic acid]
Cutaneous Toxicity Score (Blackjack Score) ([1]; 100 nmole (nmol/25 g)): 1 ± 1
Cutaneous Toxicity Score (Blackjack Score) ([1]; 1000 nmole (nmol/25 g)): 5 ± 2

SMILES: CC1(C)CC(C)(C)c2cc(C#Cc3ccc(CC(=O)O)cc3)cc(C3CC3)c2O1 [Compound 36, [4-(8-Cyclopropyl-2,2,4,4-tetramethyl-chroman-6-yl-ethynyl)phenyl]acetic acid]
Cutaneous Toxicity Score (Blackjack Score) ([1]; 100 nmole (nmol/25 g)): 1 ± 1
Cutaneous Toxicity Score (Blackjack Score) ([1]; 1000 nmole (nmol/25 g)): 11 ± 0

SMILES: CN(C1CC1)C1CCC(C)(C)c2cc(C#Cc3ccc(CC(=O)O)c(F)c3)ccc21 (stereo not shown) [Compound 18, [4-(5-(Cyclopropyl-methyl-amino)-8,8-dimethyl-5,6,7,8-tetrahydro-naphthalene-2-yl-ethynyl)-2-fluoro-phenyl]-acetic acid]
Cutaneous Toxicity Score (Blackjack Score) ([1]; 100 nmole (nmol/25 g)): 0 ± 0
Cutaneous Toxicity Score (Blackjack Score) ([1]; 300 nmole (nmol/25 g)): 5 ± 2
Cutaneous Toxicity Score (Blackjack Score) ([1]; 1000 nmole (nmol/25 g)): 10 ± 2

Kd (RARγ): > 10 µM
Kd (RARβ): > 10 µM
SMILES: CC1(C)CC(C)(C)c2cc(C(=O)Oc3ccc(CC(=O)O)cc3)ccc2O1 [Compound 46, 2,2,4,4-Tetramethyl-chroman-6-carboxylic acid 4-(carboxymethyl)phenyl ester]

SMILES: CN(C1CC1)C1CCC(C)(C)c2cc(C#Cc3ccc(CC(=O)O)cc3)ccc21 (stereo not shown) [Compound 8, 4-[(5-(Cyclopropyl-methyl-amino)-8,8-dimethyl-5,6,7,8-tetrahydro-naphthalene-2-yl-ethynyl)-phenyl]-acetic acid]
Cutaneous Toxicity Score (Blackjack Score) ([1]; 100 nmole (nmol/25 g)): 5 ± 2
Cutaneous Toxicity Score (Blackjack Score) ([1]; 300 nmole (nmol/25 g)): 8 ± 3
Cutaneous Toxicity Score (Blackjack Score) ([1]; 1000 nmole (nmol/25 g)): 12 ± 1

SMILES: CC1(C)CC(C)(C)c2cc(C#Cc3ccc(CC(=O)O)c(F)c3)cc(C3CC3)c2O1 [Compound 38, [4-(8-Cyclopropyl-2,2,4,4-tetramethyl-chroman-6-yl-ethynyl)-2-fluorophenyl] acetic acid]
Cutaneous Toxicity Score (Blackjack Score) ([1]; 100 nmole (nmol/25 g)): 1 ± 1
Cutaneous Toxicity Score (Blackjack Score) ([1]; 1000 nmole (nmol/25 g)): 10 ± 1

SMILES: CC1(C)CCC(n2ccnc2)c2ccc(C#Cc3ccc(CC(=O)O)cc3)cc21 (stereo not shown) [Compound 137, [4-(5-Imidazol-1-yl-8,8-dimethyl-5,6,7,8-tetrahydro-naphthalen-2-yl-ethynyl)-phenyl]-acetic acid]
Cutaneous Toxicity Score (Blackjack Score) ([1]; 100 nmole (nmol/25 g)): 1 ± 1
Cutaneous Toxicity Score (Blackjack Score) ([1]; 300 nmole (nmol/25 g)): 1 ± 1
Cutaneous Toxicity Score (Blackjack Score) ([1]; 1000 nmole (nmol/25 g)): 5 ± 2

SMILES: CCN(Cc1ccc(C#Cc2ccc(CC(=O)O)cc2)cc1C)C1CC1 [Compound 131, (4-{4-[(Cyclopropyl-ethyl-amino)-methyl]-3-methyl-phenylethynyl}-phenyl)-acetic acid]
Cutaneous Toxicity Score (Blackjack Score) ([1]; 100 nmole (nmol/25 g)): 1 ± 1
Cutaneous Toxicity Score (Blackjack Score) ([1]; 300 nmole (nmol/25 g)): 0 ± 1
Cutaneous Toxicity Score (Blackjack Score) ([1]; 1000 nmole (nmol/25 g)): 1 ± 1

Kd (RARγ): > 10 µM
SMILES: CCCN(CCC)C1(c2ccc(C#Cc3ccc(C(=O)O)cc3)cc2)CC1 [Compound 110, 4-[4-(1-Dipropylamino-cyclopropyl)-phenylethynyl]-benzoic acid]
